One assay deals with pre-miR21. In words: 1D 1H NMR ligand-detect titration of compounds with pre-miR21 RNA. In kind it is binding, human. The protocol: FIG. 6 compares the binding of representative compounds of the invention (see FIG. 5) to pre-miR21. 1D ^1H NMR ligand-detect titrations of compounds, generated by titrating in increasing concentrations of RNA into a solution containing 100 μM of the relevant compound in buffer containing 50 mM deuterated Tris at pH 6.5, as well as 250 mM NaCl, 50 mM KCl and 2 mM MgCl2. As increasing amounts of compounds are bound to the RNA in the course of the titration, the line width of the NMR signal increases, and the NMR peak height decreases. The fraction of compound bound can be calculated from the decrease in […] relative to an internal standard. Saturation of the curves to a value of 1 indicates the predominant presence of a single site with high binding affinity. Approximate binding constants can be calculated by fitting the data points to a binding isotherm. For reference, the data fit for compound −0052 corresponds to a Kd=200 nM, while compound −0045 corresponds to a Kd=600 nM.
The compounds show a strong pre-miR21 binding capacity.
RNA Transcription. All RNAs for ligand screening and structural or biochemical work were prepared in house using in vitro transcription on a large scale (typically 10 mL). RNA transcription and purification protocols used purified DNA oligonucleotide templates (IDT) and T7 RNA polymerase. Briefly, 1 mL of 8 μM TOP DNA (5′-CTATAGTGAGTCGTATTA-3′ (SEQ ID NO: 1)), corresponding to the phage T7 RNA polymerase promoter region, was annealed to 80 μL of 100 μM template sequences with 13 mM MgCl2, heated to 95° C. for […] then allowed to anneal to room temperature over 20 min. The annealing mixture was incubated with 5 mM of each of the four NTPs (ATP, GTP, UTP and CTP, from Sigma), transcription buffer, 8% PEG-8000 and 35 mM magnesium chloride with 0.4 mg/mL T7 RNA polymerase expressed and purified using established methods. All RNA samples are purified from crude transcriptions by 20% denaturing polyacrylamide gel electrophoresis (PAGE), electroeluted and concentrated by ethanol precipitation. The samples are re-dissolved in 12 mL of high salt wash (700 mM NaCl, 200 mM KCl, in 10 mM potassium phosphate at pH 6.5, with 10 μM EDTA to chelate any divalent ions), concentrated using Centriprep conical concentrators ([…] MWC, Millipore). The RNA was then slowly exchanged into low salt storage buffer (10 mM potassium phosphate at pH 6.5, with 10 mM NaCl and 10 μM EDTA). Prior to NMR experiments, all RNA samples were finally desalted using NAP-10 gravity columns, lyophilized and re-dissolved in ‘screening buffer’ or ‘structure buffer’ (see below), then annealed by heating for 4 min to 90° C. and snap cooling at −20° C.

Assay [1] has as its system mature miR-10b in ASPC1 cells. In words: qRT-PCR of mature miR-10b in ASPC1 cells. The following applies: ASPC1, 10 nmoles, 48 hours, relative to DMSO control. The class given is cell-based, human. The protocol:
FIGS. 14A-14D compare levels of mature miR-10b and pre-miR-10b measured in gastric adenocarcinoma (AGS) (FIGS. 14A and 14B, respectively) and pancreatic cancer cell line (ASPC 1) (FIGS. 14C and 14D, respectively), normalized to internal controls (U6 or U8 snRNA), in the presence of 10 nmoles of palbociclib (a negative control not expected to directly affect miRNA levels) and compounds −0045 and −0052, 48 hours after incubation, relative to DMSO control, and measured by standard qRT-PCR. We notice that levels of pre-miR-10b are very low in both cell lines, rendering the data very uncertain. Statistically significant changes are labeled with asterisks.
In order to investigate whether inhibition was specific to miR-21, levels of mature miR-10b and pre-miR-10b were examined in the same cell lines (FIGS. 14A-14D); this is another oncogenic microRNA implicated in metastasis. […]
Quantitative real time PCR analysis. […] RNA concentration was assessed with the NanoDrop ND-1000 spectrophotometer (ThermoFisher Scientific). […] Expression of miR-21 was assessed utilizing the TaqMan microRNA assay (Applied Biosystems). […] All experiments were performed in triplicate, with all samples normalized to the internal controls and relative expression levels calculated using the 2^ΔΔCt method.

Where [2] appears, read: 100 μM compound, 50 mM deuterated Tris pH 6.5, 250 mM NaCl, 50 mM KCl, 2 mM MgCl2, approximate, read-out: Kd (fit of NMR titration data to binding isotherm).
Setting [3] is: estimated, FIG. 6, read-out: KD for pre-miR21.

Like-named read-outs stand apart in the source and are kept apart here.

As to `O=c1[nH]c(Nc2ccc(N3CCNCC3)cn2)nc2cccnc12` [Compound 25], the Kd on pre-miR21 (setting [2]) and on pre-miR21 (setting [3]) was 600 nM each time. Further, the “change in levels of mature miR-10b” value in assay [1] was “smaller and not statistically significant changes”.

In the case of `O=c1[nH]c(Nc2ccc(N3CCNCC3)cn2)nc2cnccc12` [Compound 30], the Kd at pre-miR21 (setting [2]) and at pre-miR21 (setting [3]) was 200 nM throughout. The “reduction of levels of mature miR-10b” value in assay [1] was “about 2 fold”.
